Measured values taken from ChEMBL document CHEMBL2311467, “Microwave-assisted synthesis of pyrimido[4,5-b][1,6]naphthyridin-4(3H)-ones with potential antitumor activity” (Eur J Med Chem, 2013).

Key:
Type in all cases: functional
MDA-MB-468 = assay: Cytotoxicity against human MDA-MB-468 after 48 hrs by SRB assay; details: MDA-MB-468, 48 h
MCF7 = assay: Cytotoxicity against human MCF7 after 48 hrs by SRB assay; details: MCF7, 48 h
UO-31 = assay: Cytotoxicity against human UO31 after 48 hrs by SRB assay; details: UO-31, 48 h
TK-10 = assay: Cytotoxicity against human TK10 after 48 hrs by SRB assay; details: TK-10, 48 h
OVCAR-8 = assay: Cytotoxicity against human OVCAR8 after 48 hrs by SRB assay; details: OVCAR-8, 48 h
UACC-62 = assay: Cytotoxicity against human UACC62 after 48 hrs by SRB assay; details: UACC-62, 48 h
MDA-MB-435 = assay: Cytotoxicity against human MDA-MB-435 after 48 hrs by SRB assay; details: MDA-MB-435, 48 h
M14 = assay: Cytotoxicity against human M14 after 48 hrs by SRB assay; details: M14, 48 h
U-251 = assay: Cytotoxicity against human U251 after 48 hrs by SRB assay; details: U-251, 48 h
LOX IMVI = assay: Cytotoxicity against human LOXIMVI after 48 hrs by SRB assay
Malme-3M = assay: Cytotoxicity against human MALME-3M after 48 hrs by SRB assay
SF-295 = assay: Cytotoxicity against human SF295 after 48 hrs by SRB assay; details: SF-295, 48 h
NCI-H23 = assay: Cytotoxicity against human NCI-H23 after 48 hrs by SRB assay; details: NCI-H23, 48 h
NCI-H322M = assay: Cytotoxicity against human NCI-H322M after 48 hrs by SRB assay
MOLT-4 = assay: Cytotoxicity against human MOLT4 after 48 hrs by SRB assay; details: MOLT-4, 48 h
[1] = read-out: LC50 (the source's name)

COc1cc(/C=C2\CN(C)CC3=C2Nc2nc(SC)[nH]c(=O)c2C3c2cc(OC)c(OC)c(OC)c2)cc(OC)c1OC (stereo not given)
GI50 (MDA-MB-468): 2.2 µM | CC50 (MDA-MB-468; [1]): 38.8 µM | GI50 (MCF7): 4.98 µM | CC50 (MCF7; [1]): 50 µM | GI50 (UO-31): 1.57 µM | CC50 (UO-31; [1]): 7.54 µM | GI50 (TK-10): 6.07 µM | CC50 (TK-10; [1]): 46.9 µM | GI50 (OVCAR-8): 2.89 µM | CC50 (OVCAR-8; [1]): > 100 µM | GI50 (UACC-62): 2.06 µM | CC50 (UACC-62; [1]): 18.5 µM | GI50 (MDA-MB-435): 2.51 µM | CC50 (MDA-MB-435; [1]): 39.8 µM | GI50 (M14): 2.98 µM | CC50 (M14; [1]): 50.9 µM | GI50 (U-251): 1.76 µM | CC50 (U-251; [1]): 9.75 µM | GI50 (LOX IMVI): 1.66 µM | CC50 (LOX IMVI; [1]): 9.37 µM | GI50 (Malme-3M): 2.82 µM | CC50 (Malme-3M; [1]): 55.5 µM | GI50 (SF-295): 2.24 µM | CC50 (SF-295; [1]): 26.9 µM | GI50 (NCI-H23): 3.54 µM | CC50 (NCI-H23; [1]): > 100 µM | GI50 (NCI-H322M): 6.6 µM | CC50 (NCI-H322M; [1]): 46.1 µM | GI50 (MOLT-4): 2.92 µM | CC50 (MOLT-4; [1]): > 100 µM
